{"source": "patent US20090215752A1", "about": "“Compounds, preparation and therapeutic use thereof” (priority 2005, published 2009)", "key": {"[1]": {"target": "T1, PDE5 (Bos taurus, UniProt Q28156)", "T1 construct": "PDE3, PDE4 and PDE5 from vascular smooth muscle; from tissue; host or cells: bovine aortic media (vascular smooth muscle), DEAE-Sephacel fraction", "assay": "Selectivity: inhibition of PDE5 (radioenzymatic assay)", "type": "biochemical, bovine", "details": "Table 2; 10 μM compound; read-out: PDE5 percentage inhibition at 10 μM", "procedure": "(§1) 2.1.1. Isolation of Phosphodiesterases from Smooth Muscle A 3 g segment of bovine aortic media cut into pieces with scissors was homogenized with an ultra-turrax then a potter glass/glass homogenizer in 7 volumes by weight of buffer A containing a protease inhibitor cocktail (20 mM Tris-HCl, 0.25 M saccharose, 2 mM magnesium acetate, 1 mM dithiothreitol, 5 mM EGTA, 2000 U/ml aprotinin, 10 mg/l leupeptin and 10 mg/l soya trypsic inhibitor). The homogenizate was centrifuged at 105,000 g for 1 hour. The supernatant was loaded on a DEAE-Sephacel column (15×1.6 cm) pre-equilibrated with buffer B (buffer A without the saccharose, EGTA and protease inhibitors). The column was washed until there was no detectable absorption at 280 nm, then eluted with a linear gradient of NaCl (0-0.5 M) in buffer B. 3-ml fractions were collected and enzyme activity was determined under the conditions described hereinbelow to localize the different enzymes PDE1, PDE3, PDE4 and PDE5 which were aliquoted and frozen at −80° C. (Lugnier et al., Biochem. Phamacol., 1986, 35: 1746-1751). […]\n(§2) Cyclic nucleotide phosphodiesterase activity was determined by a radioenzymatic method using tritium-labelled cyclic GMP or AMP (1 μM) as substrate (Lugnier et al., 1986). ^3H-labelled adenosine or guanosine monophosphate formed by hydrolysis of the radiolabelled cyclic nucleotide was then converted to ^3H-labelled adenosine or guanosine in a second reaction with one nucleotidase in excess. […] Nucleoside radioactivity was determined by liquid scintillation counting. […]\n(§3) The activity of the compounds was evaluated on other phosphodiesterase isoforms, particularly basal state or calmodulin-activated PDE1 from vascular smooth muscle, PDE3, PDE4 and PDE5 from vascular smooth muscle. The results obtained are presented in Tables 1 and 2 hereinbelow and are expressed as the percentage inhibition of enzymatic activity produced by […] of the test compound."}, "[2]": {"target": "T2, PDE2 (Homo sapiens, UniProt O00408)", "T2 construct": "PDE2 was isolated from human platelets, provided by Etablissement Français du Sang-Alsace; tissue Etablissement Français du Sang-Alsace; host or cells: human platelets", "T2 sequence (O00408 whole entry)": "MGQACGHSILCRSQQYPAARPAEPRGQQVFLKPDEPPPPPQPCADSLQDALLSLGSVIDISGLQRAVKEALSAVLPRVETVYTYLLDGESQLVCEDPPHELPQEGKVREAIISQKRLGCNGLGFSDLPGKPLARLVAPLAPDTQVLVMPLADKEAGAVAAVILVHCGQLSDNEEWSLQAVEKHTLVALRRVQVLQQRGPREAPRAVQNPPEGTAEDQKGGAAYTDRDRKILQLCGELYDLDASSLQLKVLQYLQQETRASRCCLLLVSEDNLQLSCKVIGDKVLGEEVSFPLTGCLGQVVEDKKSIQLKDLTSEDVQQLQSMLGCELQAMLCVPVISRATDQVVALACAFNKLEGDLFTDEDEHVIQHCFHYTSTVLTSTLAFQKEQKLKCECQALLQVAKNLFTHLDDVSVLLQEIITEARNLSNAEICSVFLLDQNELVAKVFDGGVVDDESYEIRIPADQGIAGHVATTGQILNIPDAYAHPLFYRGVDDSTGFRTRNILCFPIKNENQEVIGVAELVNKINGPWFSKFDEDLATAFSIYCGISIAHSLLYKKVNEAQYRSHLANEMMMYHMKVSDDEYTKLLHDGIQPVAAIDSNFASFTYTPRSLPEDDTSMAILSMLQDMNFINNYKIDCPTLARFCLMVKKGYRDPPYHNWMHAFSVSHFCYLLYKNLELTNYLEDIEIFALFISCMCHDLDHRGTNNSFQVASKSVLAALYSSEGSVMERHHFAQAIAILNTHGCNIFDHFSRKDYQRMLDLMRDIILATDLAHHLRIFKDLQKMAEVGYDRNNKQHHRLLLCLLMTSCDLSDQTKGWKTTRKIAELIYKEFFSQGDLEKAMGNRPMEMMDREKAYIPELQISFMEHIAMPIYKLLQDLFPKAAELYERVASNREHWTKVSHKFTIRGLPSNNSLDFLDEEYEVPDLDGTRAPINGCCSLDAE", "assay": "Inhibition of PDE2 (radioenzymatic phosphodiesterase assay)", "type": "biochemical", "procedure": "(§4) 2.1.1. Isolation of Phosphodiesterases from Smooth Muscle A 3 g segment of bovine aortic media cut into pieces with scissors was homogenized with an ultra-turrax then a potter glass/glass homogenizer in 7 volumes by weight of buffer A containing a protease inhibitor cocktail (20 mM Tris-HCl, 0.25 M saccharose, 2 mM magnesium acetate, 1 mM dithiothreitol, 5 mM EGTA, 2000 U/ml aprotinin, 10 mg/l leupeptin and 10 mg/l soya trypsic inhibitor). The homogenizate was centrifuged at 105,000 g for 1 hour. The supernatant was loaded on a DEAE-Sephacel column (15×1.6 cm) pre-equilibrated with buffer B (buffer A without the saccharose, EGTA and protease inhibitors). The column was washed until there was no detectable absorption at 280 nm, then eluted with a linear gradient of NaCl (0-0.5 M) in buffer B. 3-ml fractions were collected and enzyme activity was determined under the conditions described hereinbelow to localize the different enzymes PDE1, PDE3, PDE4 and PDE5 which were aliquoted and frozen at −80° C. (Lugnier et al., Biochem. Phamacol., 1986, 35: 1746-1751). PDE2 was isolated from human platelets, provided by Etablissement Français du Sang-Alsace, according to Kameni Tcheudji J F et al., (J. Mol. Biol. 2001; 310: 181-791), and stored until use at −80° C. in small aliquots.\n(§5) Cyclic nucleotide phosphodiesterase activity was determined by a radioenzymatic method using tritium-labelled cyclic GMP or AMP (1 μM) as substrate (Lugnier et al., 1986). ^3H-labelled adenosine or guanosine monophosphate formed by hydrolysis of the radiolabelled cyclic nucleotide was then converted to ^3H-labelled adenosine or guanosine in a second reaction with […] in excess. The nucleoside formed was separated from the nucleotides by anion exchange chromatography. Nucleoside radioactivity was determined by liquid scintillation counting. Enzymatic incubations were carried out under conditions allowing no more than 15% hydrolysis of the substrate; each point was performed in duplicate.\nThe concentration of substance which inhibits enzymatic activity by 50% (IC50) at 1 μM cyclic AMP was calculated by nonlinear regression from the experimental values of hydrolysis rate (Prism, GraphPad)."}, "[3]": {"target": "T3, PDE3 (Bos taurus, UniProt A0A3Q1M1E8)", "T3 sequence (A0A3Q1M1E8 1-1126)": "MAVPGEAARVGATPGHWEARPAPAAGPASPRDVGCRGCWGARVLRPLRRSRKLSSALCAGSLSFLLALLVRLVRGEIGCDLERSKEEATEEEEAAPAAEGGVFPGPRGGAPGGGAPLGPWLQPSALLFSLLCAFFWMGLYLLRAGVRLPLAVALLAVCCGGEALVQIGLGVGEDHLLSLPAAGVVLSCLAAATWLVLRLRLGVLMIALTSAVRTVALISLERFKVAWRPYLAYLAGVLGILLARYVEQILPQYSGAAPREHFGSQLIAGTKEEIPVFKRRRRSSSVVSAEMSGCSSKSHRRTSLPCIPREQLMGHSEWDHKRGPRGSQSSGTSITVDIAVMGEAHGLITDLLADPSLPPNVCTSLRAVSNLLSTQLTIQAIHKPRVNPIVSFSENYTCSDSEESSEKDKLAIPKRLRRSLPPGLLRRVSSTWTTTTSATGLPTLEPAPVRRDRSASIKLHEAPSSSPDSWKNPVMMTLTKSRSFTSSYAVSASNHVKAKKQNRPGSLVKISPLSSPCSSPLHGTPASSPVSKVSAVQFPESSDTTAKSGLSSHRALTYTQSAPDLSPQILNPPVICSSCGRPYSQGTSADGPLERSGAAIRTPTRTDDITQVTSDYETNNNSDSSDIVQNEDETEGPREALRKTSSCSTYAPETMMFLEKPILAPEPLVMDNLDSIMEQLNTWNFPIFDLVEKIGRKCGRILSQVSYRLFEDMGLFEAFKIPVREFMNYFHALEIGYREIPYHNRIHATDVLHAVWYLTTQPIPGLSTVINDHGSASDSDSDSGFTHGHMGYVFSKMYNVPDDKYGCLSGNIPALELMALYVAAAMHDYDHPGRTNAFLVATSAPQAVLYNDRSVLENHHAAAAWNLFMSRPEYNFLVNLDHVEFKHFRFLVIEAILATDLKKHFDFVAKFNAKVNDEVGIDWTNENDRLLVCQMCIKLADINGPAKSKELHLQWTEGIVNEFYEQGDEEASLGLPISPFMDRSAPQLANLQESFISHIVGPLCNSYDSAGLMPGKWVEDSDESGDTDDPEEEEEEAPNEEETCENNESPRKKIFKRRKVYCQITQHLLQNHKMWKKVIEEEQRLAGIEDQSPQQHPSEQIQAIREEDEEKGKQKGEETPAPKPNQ", "assay": "Selectivity: inhibition of PDE3 (radioenzymatic assay)", "type": "biochemical, bovine", "details": "Table 2; 10 μM compound; read-out: PDE3 percentage inhibition at 10 μM", "procedure": "as §1, §2, §3"}, "[4]": {"test_system": "PDE1", "assay": "Selectivity: inhibition of PDE1 (radioenzymatic assay)", "type": "biochemical, bovine", "details": "Table 2; 10 μM compound", "procedure": "as §1, §2, §3"}, "[5]": {"test_system": "PDE4", "assay": "Selectivity: inhibition of PDE4 (radioenzymatic assay)", "type": "biochemical, bovine", "details": "Table 2; 10 μM compound", "procedure": "as §4, §5, §3"}}, "data": [{"smiles": "COCCCc1cccc(C2=NCC(=O)N(C)c3cc(OC)c(-c4ccccc4)c(OC)c32)c1", "note": "[Compound 29, 6,8-Dimethoxy-5-[3-(3-methoxy-propyl)-phenyl]-1-methyl-7-phenyl-1,3-dihydro-benzo[e][1,4]diazepin-2-one]", "values": [{"measurement": "inhibition at 10 µM", "setting": "[1]", "value": 19, "unit": "%"}, {"measurement": "IC50", "setting": "[2]", "value": 800, "unit": "nM"}, {"measurement": "inhibition at 10 µM", "setting": "[2]; Table 1, 10 μM compound, 1 μM cyclic AMP, read-out: PDE2 percentage inhibition at 10 μM", "value": 91, "unit": "%"}, {"measurement": "inhibition at 10 µM", "setting": "[3]", "value": 40, "unit": "%"}, {"measurement": "PDE1 percentage inhibition at 10 μM", "setting": "[4]", "value": 31, "unit": "%"}, {"measurement": "PDE4 percentage inhibition at 10 μM", "setting": "[5]", "value": 49, "unit": "%"}]}]}
